The text below walks through data of PubChem BioAssay (NCI).

Common to all, as to assay: NCI tumour cell line growth inhibition, 48 h
Assay [1] relates to T-47D breast.
Assay [2] has as its system SN12K1 renal.
The test system of assay [3] is M19-MEL melanoma.
Assay [4] deals with DLD-1 colon.
In assay [5] the test system is P388/ADR leukemia.
In assay [6] the test system is XF 498 CNS.
Assay [7] relates to P388 leukemia.
For assay [8], the system named is HOP-18 NSCLC.
Assay [9] relates to LXFL 529 NSCLC.
For assay [10], the system named is RXF-631 renal.

Values joined by “and” are separate entries in the source; they are usually repeats but may differ in a detail not shown here. Equal entries are not always repeated.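 The compound was tested at five concentrations on cells cultured in 96-well plates, with a 48-hour exposure period. GI50: concentration for 50% inhibition of growth. At the TGI there is no net growth.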

The molecule `C/C(CC/C(C)=N/O)=N\O` displayed a TGI in assay [1] of over 100 µM.

As to `CS(=O)(=O)c1ccc(/C=N/NC(N)=S)cc1`, the TGI in assay [1] is over 100 µM.

The molecule `O=C1OC[C@@H]2[C@@H](O)CCCCCN12` gave a TGI in assay [1] of over 100 µM.

`COc1cc2c(cc1OC)-c1cc3ccccc3c[n+]1CC2` returned a TGI in assay [1] of over 100 µM.

In the case of `CCS(=O)(=O)N1CCC(C(C)n2c(C)c(C(=O)NCc3c(OC)cc(C)[nH]c3=O)c3ccccc32)CC1` (configuration not stated), in [1], the GI50 was over 100 µM and the TGI is over 100 µM.

On to `COC1=C2CC(C)CC(OC)C(O)C(C)/C=C(\C)C(OC(N)=O)C(OC)/C=C\C=C(/C)C(=O)NC(=C(C=NC(C)(C)C)C1=O)C2=O` (configuration not stated), for which the TGI in [2] stood at 31.2 µM; in assay [3] it was 15.6 µM; in assay [4], 45.7 µM; in assay [5], 62.5 µM; in assay [6] it was 3.09 µM; in [7], 8.79 µM. Further, in [8], the TGI was found to be 33.7 µM.

For the molecule `CC[C@]1(O)C[C@H]2CN(CCc3c([nH]c4ccccc34)[C@@](C(=O)OC)(c3cc4c(cc3OC)N(C=O)[C@H]3[C@@](O)(C(=O)OC)[C@H](OC(C)=O)[C@]5(CC)C=CCN6CC[C@]43[C@@H]65)C2)C1`, the TGI in assay [2] is 0.134 µM; in assay [3], 169 µM; in assay [4] it was 144 µM; in assay [1], 399 µM and 171 µM; in assay [9], 7.81 µM; in assay [5], 35.5 µM. For the same molecule, the TGI was 2.5 µM in assay [6], 7.83 µM in [7] and 87.3 µM in assay [8]. Also, the GI50 in assay [1] was 112 µM.

Turning to `Cc1ccccc1C(=O)c1c(O)c2c(c(O)c1Br)CCCC2`, the TGI in [3] was 29.4 µM; in assay [4], 58.9 µM; in assay [9], 26.9 µM; in assay [6], 36.6 µM; in [8], 25.2 µM.

Consider `O=[N+]([O-])c1nc(-c2ccccn2)[nH]c1[N+](=O)[O-]`, for which the TGI in assay [3], in [4], in [9], in assay [6] and in [10] was over 100 µM throughout.

`CCOC(=O)NC(Nc1ncccn1)(C(F)(F)F)C(F)(F)F`: in assay [1], the TGI was over 100 µM.

`NC(=O)c1nnc2ccc(F)cc2c1N` showed a TGI in assay [1] of over 100 µM.

As for `Nc1ncnc2c1ncn2C1OC(COP(=O)(O)O)C(O)C1O` (configuration not stated), the TGI in assay [2] is over 50 µM; in [3] it was over 50 µM; in [4], over 31.6 µM; in assay [5], over 50 µM; in assay [6], over 44.7 µM; in assay [7], over 37.3 µM. The molecule further displayed a TGI in assay [8] of over 50 µM.

On to `CC1(C)CCC[C@@]2(C)C1CCC1(C)C(CCc3ccoc3)/C(=C/OS(=O)(=O)O)CCC12` (some centres not stated) (tested in a mixture with another compound), for which the TGI in assay [3], in assay [4], in assay [9], in [6], in [10] and in assay [8] was over 100 µM throughout.

The molecule `C/C=C/[C@H]1O[C@@](O)([C@@H](C)[C@H](O)[C@H](C)[C@H]2OC(=O)/C(OC)=C/C(C)=C/[C@@H](C)[C@@H](O)[C@@H](CC)[C@@H](O)[C@H](C)C/C(C)=C/C=C/[C@@H]2OC)C[C@H](OC2CC(O)C(O)C(C)O2)[C@@H]1C` (some centres not stated) came in with a TGI in assay [1] of 0.336 µM.

Take `C=C(CN(C)C)C(=O)c1ccccc1C`: the TGI in [3] is 53.5 µM; in assay [4] it was 45.8 µM; in [9], 30.7 µM; in assay [6], over 75.6 µM; in assay [10], over 100 µM; in assay [8] it was over 52.4 µM.

In [1], `O=C(O)c1cc2ccccc2c(N=Nc2ccccc2)c1O` showed a TGI of over 100 µM.

On to `O=C(O)c1ccccc1NC(c1ccccc1)c1ccc2cccnc2c1O` (configuration not stated), for which, in assay [1], the TGI came out at 39.4 µM.
